{"source": "patent US11226337B2", "about": "“Chemoproteomic profiling of protein electrophilic and oxidative post-translational modifications” (Zenagem, LLC, priority 2017, dated 2022)", "key": {"[1]": {"target": "T1, AMD1 (Homo sapiens, UniProt P17707)", "T1 construct": "Full-length genes encoding three probe 1- and one probe 2-targeted proteins were amplified from a cDNA library; expressed in transfected cells; host or cells: HEK293T", "T1 sequence (P17707 68-334 limits assumed)": "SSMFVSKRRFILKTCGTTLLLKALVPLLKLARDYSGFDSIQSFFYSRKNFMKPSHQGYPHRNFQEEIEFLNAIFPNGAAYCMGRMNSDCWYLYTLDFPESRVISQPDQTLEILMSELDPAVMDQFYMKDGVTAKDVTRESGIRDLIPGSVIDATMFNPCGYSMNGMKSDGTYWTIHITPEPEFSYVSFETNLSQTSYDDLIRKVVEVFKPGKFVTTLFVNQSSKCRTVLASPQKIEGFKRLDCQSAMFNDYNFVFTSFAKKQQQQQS", "T1 sequence (P17707 1-67 limits assumed)": "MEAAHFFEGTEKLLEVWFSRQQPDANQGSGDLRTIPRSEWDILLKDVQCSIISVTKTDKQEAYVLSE", "conditions": "literature statement; cited from earlier work"}, "[2]": {"target": "T1, AMD1", "assay": "expression and probe 1 labelling of endogenous AMD1 after DFMO", "assay_type": "cell-based", "conditions": "HEK293T, DFMO 5 mM 48 h, 10 μM L-methionine", "procedure": "To enhance expression and labelling of endogenous AMD1, HEK293T cells were treated with difluoromethylornithine (DFMO; purchased from Santa Cruz Biotechnology) (5 mM) for 48 h in RPMI 1640 media (Fisher Scientific, A14517-01) containing 10 μM L-methionine. Cells were washed and treated with probe 1 in the absence of methionine. […] Probe 1-labelling, proteome preparation, fluorophore conjugation, gel-based analysis and western blotting were performed as described above in Examples 2 and 3. Band intensities were quantified using ImageJ software^75. […] Briefly, about 0.5 mg soluble proteomes isolated from probe 1-labelled AMD1-transfected cells grown in low versus high methionine were each diluted to 1 mL with 50 mM Na-HEPES buffer (pH 7.5) supplemented with 500 mM NaCl and 1% Triton X-100. Each proteome was incubated overnight at 4° C. by rotation with a pre-equilibrated slurry (25 μL resin (CV), anti-FLAG M2 affinity gel, Sigma). The resin was washed by resuspension and centrifugation with the same buffer supplemented with 500 mM NaCl (5×1 mL) followed by 100 mM NaCl (2×1 mL). The bound AMD1 protein was eluted in 100 μL of low salt buffer containing […] (FLAG)3 peptide [DYKDHD-(G)-DYKDHD-(I)-DYKD4K] (SEQ ID NO: 47). To prevent contamination from the excess (FLAG)3 peptide in the elution, the protein was purified by gel. […]"}}, "data": [{"substance": "difluoromethylornithine [DFMO]", "values": [{"measurement": "effect on expression of AMD1", "setting": "[1]", "result": "increase the expression of AMD1"}, {"measurement": "change in endogenous active AMD1 detected by probe 1", "setting": "[2]", "result": "DMFO-induced changes in the endogenous concentration of active AMD1"}]}]}
